Test results: US20080103152A1, “Novel Diazabicyclononene Derivative” (Actelion Pharmaceuticals Ltd, priority 2004, published 2008)

What was measured:
[1] = test system: double transgenic rats with human renin and human angiotensinogen; assay: Hemodynamic measurements (telemetry method), mean arterial blood pressure; format: in vivo, rat; settings: for blood pressure decrease (maximal decrease of mean arterial pressure versus control group): hypertensive female double transgenic rats
Protocol: Hemodynamic Measurements (Telemetry Method)
Animals—Female double transgenic rats with human renin and human angiotensinogen were purchased from RCC Ltd, Füllingsdorf, Switzerland. All animals were maintained under identical conditions and had free access to normal pelleted rat chow and water. Rats were initially treated with enalapril (1 mg/kg/day) during 2 months. After approximately two weeks following cessation of enalapril treatment the double transgenic rats become hypertensive and reach mean arterial blood pressures in the range of 160-170 mmHg.
Transmitter implantation—The rats were anaesthetised with a mixture of 90 mg/kg Ketamin-HCl (Ketavet, Parke-Davis, Berlin FRG) and 10 mg/kg xylazin (Rompun, Bayer, Leverkusen, FRG) i.p. The pressure transmitter was implanted under aseptic conditions into the peritoneal cavity with the sensing catheter placed in the descending aorta below the renal arteries pointing upstream. The transmitter was sutured to the abdominal musculature and the skin closed.
Telemetry-System—Telemetry units were obtained from Data Sciences (St. Paul, Minn.). […] The tip of the catheter was filled with a viscous gel that prevents blood reflux and was coated with an antithrombogenic film to inhibit thrombus formation. The implants (length=[…], diameter=1.2 cm) weighted 9 g and have a typical battery life of 6 months. A receiver platform (RPC-1, Data Sciences) connected the radio signal to digitized input that was sent to a dedicated personal computer (Compaq, deskpro). Arterial pressures were calibrated by using an input from an ambient-pressure reference (APR-1, Data Sciences). Systolic, mean and diastolic blood pressure was expressed in millimeter of mercury (mmHg).
[…] The effect of the test substance is expressed as maximal decrease of mean arterial pressure (MAP) in the treated group versus the control group.

[2] = molecular target: T1, recombinant human renin (Homo sapiens, UniProt P00797); assay: Primary renin inhibition assay: IC50 in buffer, 384 well MTP (Ang I measured by EIA); format: biochemical; settings: human tetradecapeptide substrate, 37° C. for 3 h, read-out: IC50 of renin inhibition (Ang I decrease)
T1 sequence (P00797 67-406): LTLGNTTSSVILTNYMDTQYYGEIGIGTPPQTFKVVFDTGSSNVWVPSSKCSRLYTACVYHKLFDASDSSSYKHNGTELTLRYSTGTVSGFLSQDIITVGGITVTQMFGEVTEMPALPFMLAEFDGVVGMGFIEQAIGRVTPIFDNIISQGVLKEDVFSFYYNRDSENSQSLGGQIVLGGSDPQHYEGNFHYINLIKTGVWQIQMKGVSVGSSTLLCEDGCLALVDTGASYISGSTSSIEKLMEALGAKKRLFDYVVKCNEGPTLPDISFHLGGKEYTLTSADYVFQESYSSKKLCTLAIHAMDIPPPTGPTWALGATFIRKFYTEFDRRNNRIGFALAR
Protocol: 1. Enzyme Immuno Assay (EIA) to Estimate Ang I Accumulation and Renin Inhibition
1.1 Preparation of Ang I-BSA Conjugate
1.3 mg (1 μmol) of Ang I [1-10 (Bachem, H-1680)] and 17 mg (0.26 μmol) of BSA (Fluka, 05475) were dissolved in 4 mL of 0.1M phosphate buffer, pH 7.4, after which 2 mL of a 1:100 dilution of glutaraldehyde in H2O (Sigma G-5882) was added dropwise. The mixture was incubated overnight at 4° C., then dialyzed against 2 liters of 0.9% NaCl, twice for 4 h at rt, followed by dialysis against 2 liters of PBS 1× overnight at rt. The solution was then filtered with a Syringe filter, 0.45 μm (Nalgene, Cat. No. 194-2545). The conjugate can be stored in polypropylene tubes in 0.05% sodium azide at 4° C. for at least 12 months.
1.2 Preparation of BSA-Ang I Coated MTP […]
The renin assay was adapted from an assay described before (Fischli W. et al., Hypertension, 1991, 18:22-31) and consists of two steps: in the first step, recombinant human renin is incubated with its substrate (commercial human tetradecapeptide renin substrate) to create the product Angiotensin I (Ang I). In the second step, the accumulated Ang I is measured by an immunological assay (enzyme immuno assay, EIA). […]

O=C(C1=C(c2ccc(CCCOc3c(F)ccc(F)c3Cl)cc2)C[C@@H]2CNC[C@H]1N2)N(Cc1cccc(Cl)c1Cl)C1CC1 [Compound (I′), (1R,5S)-7-{4-[3-(2-Chloro-3,6-difluorophenoxy)propyl]phenyl}-3,9-diazabicyclo[3.3.1]non-6-ene-6-carboxylic acid cyclopropyl-(2,3-dichlorobenzyl)amide]
activity in the animal model (in words) ([1]; oral gavage, double transgenic rats): active
blood pressure decrease (maximal decrease of mean arterial pressure versus control group) ([1]; single oral dose of 3 mg/kg): 13 mmHg
blood pressure decrease (maximal decrease of mean arterial pressure versus control group) ([1]; single oral dose of 10 mg/kg): 26 mmHg
IC50 [2]: 0.5 nM
